In patent publication US9168288B2, “Methods for treating disorders of the gastrointestinal tract using a GLP-1 agonist” (Mount Sinai Hospital, priority 2010, dated 2015):

Legend:
Assay type in all cases: in vivo
[1] = tested on: WT female mice on the C57B1/6 genetic background; assay: Example 3: efficacy of GLP-1 receptor agonists administered once per day (body weight, blood glucose, pancreas, small bowel, colon)
Procedure: All mice used in the study were 10-week old WT female mice on the C57B1/6 genetic background. The mice were maintained on regular drinking water and a standard rodent chow diet.
All injections were given once per day, and were administered ip using a 31 g insulin syringe with an 8 mm long needle in a final volume that ranged between 84-125 μl. The body weight and food intake were determined daily. Non-fasting blood glucose levels were measured using a hand-held glucometer on day 1 (prior to the first injection), day 8, and day 15 (day of sacrifice). […] The entire pancreas was removed and weighed. The entire small bowel was removed and then suspended vertically with a 1 g weight attached to the distal portion of the small bowel (to provide uniform tension). Small bowel length was determined using a vertical ruler and then flushed with ice-cold PBS, blotted dry and weighed. The entire colon was removed and colon length was determined by measuring with a ruler placed on a horizontal surface. The colon was then flushed with ice-cold PBS, blotted dry and weighed. All statistical analyses were done by one-way ANOVA with Bonferroni's Multiple Comparison Post-Test using GraphPad Prism software (version 4), n=4 mice/group.

[2] = tested on: wild-type female C57B1/6 mice on regular drinking water or 3% DSS; assay: Example 5: low dose Liraglutide (25 or 50 μg/kg BID s.c., one week), small intestine size, body weight, blood glucose; conditions: C57B1/6, regular water or 3% DSS
Procedure: All mice were 10-week old wild-type female mice on the C57B1/6 genetic background. Mice were maintained on a standard rodent chow diet and either regular drinking water or water supplemented with 3% DSS for a total of one week. Mice were given subcutaneous injections of either phosphate buffered saline (PBS), 25 μg/kg of Liraglutide (LG) BID, or 50 μg/kg of LG BID for one week. PBS or LG injections commenced at the same time that mice were started on normal drinking water or water supplemented with 3% DSS. Injections were administered using a 31 g insulin syringe with an 8 mm long needle and in a final volume that ranged between 85-110 μl. Body weights, food intake, and water intake were determined daily. […] Small intestines were removed and then suspended vertically with a 1 g weight attached to the distal portion of the small intestine (to provide uniform tension). Small intestine length was determined using a vertical ruler. Luminal contents were removed from the small bowel by flushing with ice-cold PBS using a 60 cc syringe attached to a p200 pipette tip. Mesenteric fat and pancreatic tissue were dissected away from the small intestine. The small intestine was blotted to remove excess PBS and then weighed. Statistical analyses were done by one-way ANOVA with Bonferroni's Multiple Comparison Post-Test using GraphPad Prism software (version 4).
All mice were 10-week old female wild-type mice on the C57B1/6 genetic background. Mice were maintained on a standard rodent chow diet and either regular drinking water or water supplemented with 3% DSS for a total of one week. Mice were given s.c. injections of either phosphate buffered saline (PBS), 25 μg/kg of Liraglutide (LG) BID, or 50 μg/kg of LG BID for one week. PBS or LG injections commenced at the same time that mice were started on normal drinking water or water supplemented with 3% DSS. Injections were administered using a 31 g insulin syringe with an 8 mm long needle and in a final volume that ranged between 85-110 μl. Body weights, food intake, and water intake were determined daily. Blood glucose levels were measured on the first day of the study and just prior to sacrifice. Statistical analyses were done by one-way ANOVA with Bonferroni's Multiple Comparison Post-Test using GraphPad Prism software (version 4). n=5 mice/group.

[3] = tested on: female wild-type mice on the Balb/c genetic background; assay: Example 5: low dose Liraglutide (30 or 50 μg/kg BID s.c., one week), large intestine size and body weight, Balb/c mice; conditions: Liraglutide 30 μg/kg BID s.c. 7 days vs PBS
Source text: FIGS. 18A-18D illustrate that doses of Liraglutide lower than those that have shown glucose lowering or cardioprotective effects in rodents [Rolin B, et al, 2002; Noyan-Ashraf M H, et al, 2009; Porter D W et al, 2010; Irwin N et al, 2010; and Gault V A et al, 2011] are still able to increase large intestine size (large intestine weight and length) in wild-type mice compared to PBS-treated mice. FIGS. 18A-18D also illustrate that Liraglutide treatment can increase large intestine size (large intestine length and weight) in wild-type mice on the Balb/c genetic background compared to control-treated mice. All mice were 9-week old female wild-type mice on the Balb/c genetic background. All mice were maintained on a standard rodent chow diet and normal drinking water. Mice were given s.c. injections of either phosphate buffered saline (PBS), 30 μg/kg of Liraglutide (LG) BID, or 50 μg/kg of LG BID for one week. Injections were administered using a 31 g insulin syringe with an 8 mm long needle and in a final volume that ranged between 60-120 μl. Body weights and food intake were determined daily. […] The large intestine was removed and its length was determined by measuring with a ruler placed on a horizontal surface. Luminal contents were removed from the large intestine by flushing with ice-cold PBS using a 60 cc syringe attached to a p200 pipette tip. Mesenteric fat was dissected away from the large intestine. The large intestine was blotted to remove excess PBS and then weighed. Statistical analyses were done by one-way ANOVA with Bonferroni's Multiple Comparison Post-Test using GraphPad Prism software (version 4).
All mice were 9-week old female wild-type mice on the Balb/c genetic background. All mice were maintained on a standard rodent chow diet and normal drinking water. Mice were given s.c. injections of either phosphate buffered saline (PBS), 30 μg/kg of Liraglutide (LG) BID, or 50 μg/kg of LG BID for one week. […] Body weights and food intake were determined daily. […]

[4] = Liraglutide once a day ip for two weeks (LG qd 2, 75 μg/kg) vs PBS
[5] = Liraglutide 25 μg/kg BID s.c. 7 days vs PBS, listed as 3% DSS/Liguratide
[6] = Liraglutide 25 μg/kg BID s.c. 7 days vs PBS, listed as liraglutide
[7] = Liraglutide 50 μg/kg BID s.c. 7 days vs PBS
[8] = Liraglutide 50 μg/kg BID s.c. 7 days vs PBS, listed as 3% DSS/Liguratide
[9] = Liraglutide 50 μg/kg BID s.c. 7 days vs PBS, listed as liraglutide

CCCCCCCCCCCCCCCC(=O)N[C@@H](CCC(=O)NCCCC[C@H](NC(=O)[C@H](C)NC(=O)[C@H](C)NC(=O)[C@H](CCC(N)=O)NC(=O)CNC(=O)[C@H](CCC(=O)O)NC(=O)[C@H](CC(C)C)NC(=O)[C@H](Cc1ccc(O)cc1)NC(=O)[C@H](CO)NC(=O)[C@H](CO)NC(=O)[C@@H](NC(=O)[C@H](CC(=O)O)NC(=O)[C@H](CO)NC(=O)[C@@H](NC(=O)[C@H](Cc1ccccc1)NC(=O)[C@@H](NC(=O)CNC(=O)[C@H](CCC(=O)O)NC(=O)[C@H](C)NC(=O)[C@@H](N)Cc1cnc[nH]1)[C@@H](C)O)[C@@H](C)O)C(C)C)C(=O)N[C@@H](CCC(=O)O)C(=O)N[C@@H](Cc1ccccc1)C(=O)N[C@H](C(=O)N[C@@H](C)C(=O)N[C@@H](Cc1c[nH]c2ccccc12)C(=O)N[C@@H](CC(C)C)C(=O)N[C@H](C(=O)N[C@@H](CCCNC(=N)N)C(=O)NCC(=O)N[C@@H](CCCNC(=N)N)C(=O)NCC(=O)O)C(C)C)[C@@H](C)CC)C(=O)O [Liraglutide]
no difference: increase blood glucose (blood glucose level) ([2]; Liraglutide 25 μg/kg BID s.c. 7 days vs PBS) | decrease body weight (final body weight) [2, 6] | increase blood glucose (blood glucose level) [2, 6] | decrease body weight (final body weight) [2, 7] | increase blood glucose (blood glucose level) [2, 7] | decrease body weight (final body weight) [2, 9] | increase blood glucose (blood glucose level) [2, 9] | decrease body weight (final body weight) [3] | decrease body weight (final body weight) ([3]; listed as liraglutide)
does not alter: non-fasting blood glucose levels ([1]; Liraglutide 75 μg/kg ip once a day for one week vs PBS)
No: decrease body weight (final body weight) [2, 5] | increase blood glucose (blood glucose level) [2, 5] | decrease body weight (final body weight) [2, 8] | increase blood glucose (blood glucose level) [2, 8] | decrease body weight (final body weight) ([3]; listed as 3% DSS/Liguratide)
do not have a significant effect: body weight ([1]; Liraglutide 75 μg/kg ip once per day for 7 days (LG qd 1) vs PBS) | body weight ([1]; Liraglutide 75 μg/kg ip once per day for 14 days (LG qd 2) vs PBS)
significantly increased: non-fasting blood glucose levels ([1]; Liraglutide 75 μg/kg ip once a day for two weeks vs PBS)
significantly increases: pancreas weight per gram of body weight [1, 4] | total pancreas weight [1, 4]
